Data on 9 compounds can be found in US20260102407A1, “TREATMENT METHODS” (priority 2020, published 2026).

Data set [1] is described as follows: Solubility on dilution in medium containing serum. It is filed as physicochemical. Conditions: dilution in medium containing serum.
For data set [2], the target named is T1, Recombinant human His-MEK1 (Homo sapiens, UniProt Q02750).
T1 construct: purchased ThermoFisher Scientific PV3303
Briefly: SPR (Biacore T200) on immobilised His-MEK1. In kind it is binding. The conditions noted are these: 15° C.; 20 mM HEPES, 150 mM NaCl, 5% DMSO pH 7.4. The procedure: (§1) SPR. SPR was performed on a Biacore T200. The active and reference flow cells of a Xantec NIHMC Ni sensor chip were conditioned with 0.5M NaEDTA followed by 5 mM NiCl2 in immobilisation buffer (20 mM HEPES, 150 mM NaCl, pH 7.4). Recombinant human His-MEK1 and His-MEK2 (500 nM, ThermoFisher Scientific, cat. PV3303 and PV3615, respectively) were injected for 15 min at 10 μl min^−1 over separate active flow cells. All immobilisation was carried out at 25° C. Following immobilisation, the temperature was lowered to 15° C., and the buffer changed to 20 mM HEPES, 150 mM NaCl, 5% DMSO pH 7.4. Samples of PD98059 (2.5-30 μM in running buffer) and BT2 (1.25-15 μM) were injected at a flow rate of 30 μl min^−1 over immobilised MEK1 and MEK2. Solvent correction was applied to the data using a DMSO standard curve. Data were analysed using the Biacore T200 Evaluation software. Prior to SPR, limits of compound solubility were determined using ^1H 1D NMR.

For data set [3], the target named is T2, Recombinant human His-MEK2 (Homo sapiens, UniProt P36507).
T2 construct: purchased ThermoFisher Scientific PV3615
Briefly: SPR (Biacore T200) on immobilised His-MEK2. It is filed as binding. The conditions noted are these: 15° C.; 20 mM HEPES, 150 mM NaCl, 5% DMSO pH 7.4. The procedure: as §1

Data set [4] has as its system HMEC-1. The data set can be described thus: Endothelial network formation assay on Matrigel. In kind it is cell-based, human. Conditions: for endothelial network (tubule) formation on Matrigel: 3 μM, 1% FBS, 50 ng/ml FGF-2, 2, 4, 6 and 24 h. The procedure: Endothelial network formation assay. HMEC-1 (4×10^4 cells/well) in MCDB131 containing 1% FBS and compound (1 or 3 μM) or curcumin (1-40 μM) and 50 ng/ml FGF-2 were added to 96-well plates coated overnight at 4° C. with 100 μl of growth factor-reduced reconstituted basement membrane matrix (Matrigel, cat. 354230, Corning, NY). Network formation was observed over subsequent hours and photographed under 4× or 10× objective using an Olympus CKX41 microscope.

For data set [5], the system named is HMEC-1. Briefly: Endothelial proliferation assay using the xCELLigence system. In kind it is cell-based, human. Conditions: HMEC-1, 5% FBS, 79 h; for serum-inducible endothelial proliferation (xCELLigence cell index): 0.2-1 μM. How it is done: Endothelial proliferation assay using the xCELLigence system. HMEC-1 proliferation was evaluated using the xCELLigence System (Roche, Castle Hill). Briefly, HMEC-1 (5×10^3 cells/well) were seeded in a 96-well E-plate and inserted into the xCELLigence RTCA station (Roche). Cells were serum-deprived for 24 h in MCDB131 medium which contained 10 ng/ml EGF (Sigma-Aldrich) and 1 μg/ml hydrocortisone (Sigma-Aldrich) then treated with compound (0.2-1 μM) in medium containing 5% FBS, 10 ng/ml EGF (Sigma-Aldrich) and 1 μg/ml hydrocortisone (Sigma-Aldrich). Cell growth was monitored automatically every 15 min by xCELLigence system. Cell index (CI) represents a quantitative measure of each well cell growth. In this system, CI a unitless parameter that reports impedance of electron flow caused by adherent cells.

Data set [6] has as its system HMEC-1. The data set can be described thus: Endothelial repair following in vitro injury (scratch assay). In kind it is cell-based, human. Conditions: 0.6 μM, 5% FBS, 48 h. How it is done:
Endothelial repair following in vitro injury. HMEC-1 (90-100% confluency) in 6-well plates were washed with PBS, and treated with 0.6 μM compound in MCDB131 containing 5% FBS. A sterile pointed toothpick was used to scrape the cell monolayer and the wells photographed under 4× objective at 0 h and 48 h. Cell regrowth in the denuded zone was determined using Image-Pro Plus (Cybernetics, USA).

A further data set deals with FosB/ΔFosB. The data set can be described thus: Western blot, serum-inducible FosB/ΔFosB expression in HMEC-1. It is filed as cell-based, human. The conditions noted are these: 30 μM compound, 10% FBS 1 h. How it is done:
(§2) Western blot analysis with extracts of cells treated with serum. HMEC-1 (80-90% confluency) were arrested in serum-free MCDB131 medium without EGF or hydrocortisone for 20 h. Cells were treated with 30 μM compound in serum-free MCDB131 medium for 4 h, and the medium was changed to complete medium (with 10% FBS with EGF and hydrocortisone) with 30 μM compound for 1 h. Total protein was harvested as previously described in radioimmunoprecipitation (RIPA) lysis buffer with protease inhibitors (Li, Y., et al., Int J Cardiol 220, 185-191 (2016)). Proteins were resolved on 4-20% (w/v) sodium dodecyl sulfate (SDS)-polyacrylamide gradient gels (Bio-Rad Mini-PROTEAN TGX) and transferred to Immobilon-P PVDF membranes (Millipore, USA). Membranes were blocked with 5% skim milk and incubated with rabbit monoclonal FosB (cat. 2251, 1:1000, Cell Signaling, USA), rabbit monoclonal c-Fos antibodies (cat. 2250, 1:1000, Cell Signaling, USA) at 4° C. overnight or mouse monoclonal […] antibodies (cat. A5316, 1:30000, Sigma-Aldrich) at 22° C. for 15 min then incubated with a horseradish peroxidase conjugated secondary goat anti-rabbit (cat. P0448, 1:1000, DAKO Cytomation, Denmark) or goat anti-mouse (cat. P0447, 1:1000, DAKO Cytomation, Denmark) antibodies for 1 h. Chemiluminescence was detected using the Western Lightning Chemiluminescence system (PerkinElmer, USA) and ImageQuant™ LAS 4000 biomolecular imager (GE Healthcare Life Sciences, USA). Band intensity in images generated with the LAS 4000 on automatic exposure with sensitivity/resolution setting high was quantified using NIH ImageJ.

The next data set deals with BAEC. The data set can be described thus: Endothelial dual chamber migration assay toward VEGF-A165. It is filed as cell-based, bovine. The conditions noted are these: 1 μM; Transwell; 10% FBS and 50 ng/ml VEGF-A165 in lower chamber; 24 h. How it is done:
Endothelial dual chamber migration assay. BAEC (6×10^3 cells/well) suspended in DMEM supplemented with 10% FBS were seeded into the upper chamber of 24-well plates fitted with Millicell cell culture inserts (cat. PI8P01250, Millipore). After 48 h, the medium was changed to DMEM supplemented with 0.01% FBS and the cells were incubated for 48 h. Compounds prepared in DMEM containing 0.01% FBS were added to the upper chamber. VEGF-A165 (50 ng/ml, Sigma, cat. V7259) in medium containing 10% FBS was added to the lower chamber. After 24 h, medium from the upper chamber was removed and a cotton swab was used to remove non-migrated cells and excess liquid. The insert was placed in 70% ethanol for 10 min to allow cell fixation and membranes were dried for 10-15 min. Filters were excised and placed on slides. Mounting medium (Fluoroshield™ with DAPI, Sigma, cat. 6057) was added and specimens were visualized using an EVOS FL microscope.

For a further data set, the system named is c-Fos. The data set can be described thus: Western blot, serum-inducible c-Fos expression in HMEC-1. In kind it is cell-based, human. Conditions: 30 μM compound, 10% FBS 1 h. The procedure:
as §2

The test system of another data set is p-p38. Briefly: Western blot, IL-1β-inducible p-p38 in HMEC-1. In kind it is cell-based, human. The conditions noted are these: 1-30 μM. How it is done: (§3) Western blot analysis with extracts of cells treated with IL-13. HMEC-1 (80-90% confluency) were arrested in serum-free MCDB131 medium (Invitrogen, MD) without any growth factor for 48 h. Cells were treated with 30 μM compound in serum-free medium for 4 h, and incubated with 20 ng/ml IL-1β (Sigma, cat. SRE3083) in serum-free medium with the same concentration of compound for up to 4 h, unless otherwise indicated. Total protein was harvested as previously described using RIPA buffer with protease inhibitors. Proteins were resolved on 4-20% (w/v) SDS-polyacrylamide gradient gels and transferred to Immobilon-P PVDF membranes. […] Chemiluminescence was detected using the Western Lightning Chemiluminescence system and ImageQuant™ LAS 4000 biomolecular imager. Band intensity in images generated with the LAS 4000 using the same settings were quantified by NIH ImageJ.

In another data set the test system is p-SAPK/JNK. Briefly: Western blot, IL-1β-inducible p-SAPK/JNK in HMEC-1. In kind it is cell-based, human. Conditions: 1-30 μM. The procedure:
as §3

T1 sequence (Q02750 whole entry): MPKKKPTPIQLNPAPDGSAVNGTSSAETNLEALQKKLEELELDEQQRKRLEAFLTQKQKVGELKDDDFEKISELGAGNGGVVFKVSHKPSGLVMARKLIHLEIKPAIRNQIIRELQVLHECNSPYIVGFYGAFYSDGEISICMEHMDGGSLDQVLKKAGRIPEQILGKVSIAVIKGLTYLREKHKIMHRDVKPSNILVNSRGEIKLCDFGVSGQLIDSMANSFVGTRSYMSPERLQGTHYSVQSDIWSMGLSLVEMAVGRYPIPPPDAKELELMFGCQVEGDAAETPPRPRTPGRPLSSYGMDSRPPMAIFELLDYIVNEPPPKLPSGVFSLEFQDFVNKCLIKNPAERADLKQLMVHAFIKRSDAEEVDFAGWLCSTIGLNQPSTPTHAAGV
T2 sequence (P36507 whole entry): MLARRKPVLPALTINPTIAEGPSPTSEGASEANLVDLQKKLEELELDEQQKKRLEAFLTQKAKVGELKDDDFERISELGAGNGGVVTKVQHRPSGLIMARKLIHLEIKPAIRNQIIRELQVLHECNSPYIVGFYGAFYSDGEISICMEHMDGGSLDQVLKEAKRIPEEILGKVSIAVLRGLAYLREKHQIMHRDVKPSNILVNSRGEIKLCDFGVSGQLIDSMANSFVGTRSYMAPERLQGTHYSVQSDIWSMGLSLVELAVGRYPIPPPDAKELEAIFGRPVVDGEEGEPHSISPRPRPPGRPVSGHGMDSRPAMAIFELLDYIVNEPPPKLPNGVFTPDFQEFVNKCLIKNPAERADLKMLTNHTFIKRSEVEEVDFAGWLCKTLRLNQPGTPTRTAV

In the case of `CCN1C(=O)c2cc(NC(=O)COC)ccc2Oc2ccccc21` [BT2-MeOA, N-(10-ethyl-11-oxo-10,11-dihydrodibenzo[b,f][1,4]oxazepin-2-yl)-2-methoxyacetamide], in data set [1], the “solubility relative to BT2 and analogues” value is “greater solubility than BT2”. Further, the “binding to His-MEK1 (SPR)” value in [2] is listed as “no appreciable binding”. Moreover, the “binding to His-MEK2 (SPR)” value in data set [3] is “no appreciable binding”. In addition, the “inhibition of network formation on Matrigel (FIG. 5B)” value with HMEC-1 [4] (1 μM) was “Neither BT2-MeOA nor any other BT2 analogue had the ability to inhibit”. Moreover, the “inhibition of serum-inducible proliferation compared with BT2” value in the data set with HMEC-1 [5] (0.4 or 0.8 μM) is listed as “Neither BT2-MeOA nor any other BT2 analogue had the ability to inhibit”.
As to `CCCN1C(=O)c2cc(NC(=O)OCC)ccc2Oc2ccccc21` [BT2-Pr, ethyl (11-oxo-10-propyl-10,11-dihydrodibenzo[b,f][1,4]oxazepin-2-yl)carbamate], in [2], the “binding to His-MEK1 (SPR)” value was “no appreciable binding”. Also, in data set [3], the “binding to His-MEK2 (SPR)” value was “no appreciable binding”.
`COCCOC(=O)NC(=O)Nc1ccc(C(=NO)c2ccc(Cl)cc2)cc1` [Compound T4]: in the data set with HMEC-1 [6], the “endothelial regrowth after mechanical injury in vitro” value (from here on “endothelial regrowth”) is “blocked this reparative response”. The “serum-inducible FosB/ΔFosB expression (Western blot)” value in the data set with FosB/ΔFosB was “inhibited less potently”. For the same compound, in the data set on BAEC, the “migration of BAEC toward VEGF-A165” value is “inhibited migration”. Also, the “endothelial network (tubule) formation on Matrigel” value with HMEC-1 [4] is given as “inhibited network formation”. Moreover, the “serum-inducible endothelial proliferation (xCELLigence cell index)” value in the data set on HMEC-1 [5] is given as “inhibited serum-inducible proliferation at concentrations in a dose-dependent manner”. Besides, in the data set with c-Fos, the “serum-inducible c-Fos expression (Western blot)” value is recorded as “inhibit”.
With `COC(=O)Nc1nc2ccc(C(=O)c3ccc(F)cc3)cc2[nH]1` [Compound T6, Flubendazole, reference compound], the “endothelial regrowth” value in the data set on HMEC-1 [6] is given as “blocked this reparative response”. Moreover, the “serum-inducible FosB/ΔFosB expression (Western blot)” value in the data set on FosB/ΔFosB is given as “inhibited less potently”. Moreover, the “migration of BAEC toward VEGF-A165” value in the data set with BAEC is given as “inhibited migration”. In addition, the “endothelial network (tubule) formation on Matrigel” value in the data set with HMEC-1 [4] is listed as “inhibited network formation”. Besides, in the data set with HMEC-1 [5], the “serum-inducible endothelial proliferation (xCELLigence cell index)” value is “inhibited serum-inducible proliferation at concentrations in a dose-dependent manner”. Further, the “serum-inducible c-Fos expression (Western blot)” value with c-Fos is reported as “inhibit”.
In the case of `Nc1ccc(C(=O)c2ccc(F)cc2)cc1` [Compound T7, (4-aminophenyl)(4-fluorophenyl)methanone], the “endothelial regrowth” value in the data set on HMEC-1 [6] was “no such effect”. Also, the “serum-inducible FosB/ΔFosB expression (Western blot)” value with FosB/ΔFosB was “no inhibition”. For the same compound, the “serum-inducible endothelial proliferation (xCELLigence cell index)” value in the data set on HMEC-1 [5] is “no inhibitory effect”.
As to `COc1cccc(-c2cc(=O)c3ccccc3o2)c1N` [PD98059, reference compound], the “binding to His-MEK1 (SPR)” value in data set [2] is “bound to both His-MEK1 and His-MEK2”. Besides, the “IL-1β-inducible p-p38” value with p-p38 was “no effect”. For the same compound, in data set [3], the “binding to His-MEK2 (SPR)” value is “bound to both His-MEK1 and His-MEK2”. In the data set on BAEC, the “migration of BAEC toward VEGF-A165” value is recorded as “neither BT3, nor PD98059 (allosteric MEK inhibitor), imatinib (tyrosine kinase inhibitor) or tofacitinib (Janus kinase inhibitor) had an inhibitory effect”. The “IL-1β-inducible p-SAPK/JNK” value in the data set with p-SAPK/JNK is recorded as “no effect”.
Take `COc1cc(/C=C/C(=O)CC(=O)/C=C/c2ccc(O)c(OC)c2)ccc1O` [curcumin, reference compound]: the endothelial network formation entry in the data set on HMEC-1 [4] (1 μM, after 4 h) was “no inhibition”. Besides, the inhibition at 30 µM in the data set with HMEC-1 [4] (Homo sapiens, 30 μM, after 4 h) is ~25%. For the same compound, the inhibition at 40 µM in the data set with HMEC-1 [4] (Homo sapiens, 40 μM, after 4 h) was ~50%.
Take `Cc1ccc(NC(=O)c2ccc(CN3CCN(C)CC3)cc2)cc1Nc1nccc(-c2cccnc2)n1` [imatinib]: the “migration of BAEC toward VEGF-A165” value with BAEC is recorded as “neither BT3, nor PD98059 (allosteric MEK inhibitor), imatinib (tyrosine kinase inhibitor) or tofacitinib (Janus kinase inhibitor) had an inhibitory effect”.
On the same count and under the same terms, the value for `C[C@@H]1CCN(C(=O)CC#N)C[C@@H]1N(C)c1ncnc2[nH]ccc12` [tofacitinib] was “neither BT3, nor PD98059 (allosteric MEK inhibitor), imatinib (tyrosine kinase inhibitor) or tofacitinib (Janus kinase inhibitor) had an inhibitory effect”.
